Data taken from US20180087079A1, “METHODS OF USING CELL-CYCLE INHIBITORS TO MODULATE ONE OR MORE PROPERTIES OF A CELL CULTURE” (AMGEN INC., priority 2013, published 2018).

How the values were obtained:
CHO cells [1] = experiment: Cell cycle analysis: propidium iodide staining and FACS; format: cell-based, Chinese hamster; details: 5 microM
Method: (§1) In one set of experiments, a cell cycle analysis was performed for various cell cycle inhibitory compounds. Briefly, CHO cells are grown in 24 deep well plate (for example, Corning Axygen deep well plates; Corning, Amsterdam, The Netherlands), using standard cell-culture medium, under conditions promoting growth of the cells (for example 36 degreesC, 5% CO2) in the presence of various cell cycle inhibitors. Samples are collected at various time points, and cell cycle profiles are obtained by propidium iodide (PI) staining followed by fluorescence-activated cell sorting (FACS) analysis. Results for compounds 6-acetyl-8-cyclopentyl-5-methyl-2-((5-(1-piperazinyl)-2-pyridinyl)amino)pyrido[2,3-d][…] (Compound A) and N-(6-(4-(dimethylamino)-1-piperidinyl)-3-pyridazinyl)-9-(trans-4-methylcyclohexyl)-9H-pyrido[4′,3′,:4,5]pyrrolo[2,3-d]pyrimidin-2-amine (Compound B) are shown in Table 1 below.

[2] = tested on: transfected CHO cells expressing recombinant human monoclonal antibody (cell line 2); experiment: 24-deep well culture, cell line 2: VCD, viability, titer, qP; format: cell-based, Chinese hamster; details: 5 microM
Method: Transfected CHO cells expressing a recombinant human monoclonal antibody (mAb) are cultured in 24-deep well plates with seeding density at 1×10^7/mL for five days. At certain time periods, samples of the cultures are taken and evaluated for viable cell density (VCD; expressed in 10^6 cells/mL); percent viability (as determined by trypan blue exclusion); titer of recombinant protein (expressed in grams of protein per liter of culture, or g/L, as determined by Protein A affinity HPLC); qP, or specific productivity (expressed in picograms of recombinant protein per cell per day, or pg/c/d), the presence or absence of high molecular weight substances (usually an indicator of protein aggregation; expressed as % of the total protein); and the relative percentage of Mannose 5, a major intermediate glyco-form that attaches to N297 of the mAb. N-linked glycosylation has an impact on the tertiary structure of the antibody and may affect Fc mediated antibody effector functions. The majority of the human Fc glycans are complex biantennary structures with galactose as the prevalent terminal sugar. Immature glyco-forms, such as high-mannose glycol-forms (Man5-9), are of concern due to potential higher plasma clearance rate (as compared to the clearance rate of complex glycan linked mAbs).
Compounds are further evaluated essentially as described in Example 2 herein. Briefly, transfected CHO cells expressing recombinant human monoclonal antibody (mAb; two different cell lines expressing two different mAb, referred to as cell line 1 and cell line 2) are cultured in 24-deep well plates in the presence or absence of the compounds. At specified time points, samples of the cultures are taken and evaluated for viable cell density (VCD; expressed in 10^6 cells/mL); percent viability (as determined by any method known in the art); titer of recombinant protein (expressed in grams of protein per liter of culture, or g/L, as determined by Protein A affinity HPLC); qP, or specific productivity (expressed in picograms of recombinant protein per cell per day, or pg/c/d). Additional parameters measure include the presence or absence of high molecular weight substances (usually an indicator of protein aggregation; expressed as % of the total protein); and the relative percentage of Mannose 5. For comparison purposes, Compounds A and B, which had been previously tested, were tested again.

Colo205 = experiment: [14C]-thymidine incorporation cell proliferation inhibition assay; format: cell-based; details: Homo sapiens, COLO 205, 72 hour incubation
Method: The cell proliferation inhibition potency of the cell cycle inhibitors was determined by using a [^14C]-thymidine incorporation assay. Exponentially growing cells (Colo205) were seeded in a 96-well Cytostar T plate (GE Healthcare Biosciences) at a density of 5×10^3 cells/well and incubated overnight. Serially diluted compounds and 0.1 μCi of [^14C]-thymidine (GE Healthcare Biosciences) were added to each well on the following day. After 72 hour incubation, isotope incorporation was determined with a β plate counter (Wallac). IC50 values of the compounds in the above assays were determined by non-linear regression analysis using Prism (GraphPad Software).

CDK4/Cyclin D1 = biological target: T1, CDK4/Cyclin D1 (Homo sapiens, UniProt P11802); experiment: CDK4 filtration kinase assay; format: biochemical; details: CDK4/Cyclin D1, Rb fragment substrate, [33P]-ATP
T1 construct: purchased Cell Signaling Technology
T1 sequence (P11802 whole entry, species assumed, the tested form may be a part): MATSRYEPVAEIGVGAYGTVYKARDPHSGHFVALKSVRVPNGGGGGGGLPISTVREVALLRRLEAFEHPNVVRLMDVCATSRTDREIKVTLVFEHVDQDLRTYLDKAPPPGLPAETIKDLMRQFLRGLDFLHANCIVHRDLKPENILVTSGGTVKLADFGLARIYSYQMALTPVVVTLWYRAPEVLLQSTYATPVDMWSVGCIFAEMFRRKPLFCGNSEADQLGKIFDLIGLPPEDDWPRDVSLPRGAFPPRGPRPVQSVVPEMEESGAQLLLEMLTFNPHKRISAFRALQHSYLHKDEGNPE
T1 sequence (P24385 whole entry partner, species assumed, the tested form may be a part): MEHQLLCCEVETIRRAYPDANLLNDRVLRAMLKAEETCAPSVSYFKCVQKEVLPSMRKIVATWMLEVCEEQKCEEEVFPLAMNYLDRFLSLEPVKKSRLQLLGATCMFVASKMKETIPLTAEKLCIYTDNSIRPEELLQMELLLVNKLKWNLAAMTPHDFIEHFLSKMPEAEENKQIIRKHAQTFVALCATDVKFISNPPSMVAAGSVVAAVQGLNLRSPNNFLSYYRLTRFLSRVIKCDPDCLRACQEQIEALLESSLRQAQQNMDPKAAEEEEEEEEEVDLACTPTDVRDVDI
Method: The CDK4 inhibitory activity of the cell cycle inhibitors was determined with a filtration kinase assay. The compounds, kinase and substrate diluted in the kinase buffer (20 mM Tris, pH7.4, 50 mM NaCl, 1 mM DTT, 0.1% BSA) were sequentially added to a 96-well Multiscreen HTS filtration plate (Millipore). The final 100 μL reaction mixture in each well contained 0.3 μg of CDK4/Cyclin D1 (Cell Signaling Technology), 1 μg of Rb fragment (aa773-928, Millipore) for the CDK4 assay and 1 μCi of [^33P]-ATP. The mixture was incubated at room temperature for 1 hour. The proteins in the reaction were then precipitated and washed with cold TCA solution using an aspiration/filtration vacuum system. The plates were dried at room temperature, and the retained radioactivity was measured by scintillation counting. IC50 values of the compounds in the above assays were determined by non-linear regression analysis using Prism (GraphPad Software).

[3] = tested on: transfected CHO cells expressing recombinant human monoclonal antibody (cell line 1); experiment: 24-deep well culture, cell line 1: VCD, viability, titer, qP; format: cell-based, Chinese hamster; details: for Titer / VCD / Viability / qP: Cell Line 1, 5 microM
Outline: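 Antibody-expressing CHO lines were grown in 24-deep-well plates with or without compound. Cultures were sampled at set time points for VCD (10^6 cells/mL), viability, titer (g/L, by Protein A HPLC) and specific productivity qP (pg/cell/day). High-molecular-weight species and Mannose 5 share were also measured.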

CHO cells [4] = experiment: Initial dosage and time course study: cell viability and growth arrest (Table 4); format: cell-based, Chinese hamster
Method: as §1
Various compounds were tested in an initial dosage and time course study to ascertain their effects on cell viability and growth phase arrest substantially as described previously in Example 1. Compounds were evaluated for effect, or lack thereof, on viability, as well as their ability to cause growth arrest. Compounds that maintained at least 80% cell viability at one or more concentrations for the five day duration of this assay were regarded as having relatively little or no cell cytotoxicity.

[5] = tested on: mammalian cells such as CHO cells; experiment: Predicted specific productivity of recombinant protein for Compound M; format: cell-based, Chinese hamster; details: predicted from Table 4, structural similarity, CDK4 assay and cell proliferation assay

With `CN(C)C1CCN(c2ccc(Nc3ncc4c5ccncc5n([C@H]5CC[C@H](C)CC5)c4n3)nn2)CC1` [Compound B, N-(6-(4-(dimethylamino)-1-piperidinyl)-3-pyridazinyl)-9-(trans-4-methylcyclohexyl)-9H-pyrido[4′,3′,:4,5]pyrrolo[2,3-d]pyrimidin-2-amine] the “Cell Cycle Distribution (%) G1” value (CHO cells [1]; Day 1) was 91.22%, the “Cell Cycle Distribution (%) G2/M” value (CHO cells [1]; Day 1) was 2.74% and the “Cell Cycle Distribution (%) S” value (CHO cells [1]; Day 1) was 6.04%. For the same compound, the “Cell Cycle Distribution (%) G1” value (CHO cells [1]; Day 2) was 74.82%, the “Cell Cycle Distribution (%) G2/M” value (CHO cells [1]; Day 2) was 5.75% and the “Cell Cycle Distribution (%) S” value (CHO cells [1]; Day 2) was 19.43%. For the same compound, the “Cell Cycle Distribution (%) G1” value (CHO cells [1]; Day 3) was 79.21%, the “Cell Cycle Distribution (%) G2/M” value (CHO cells [1]; Day 3) was 3.49% and the “Cell Cycle Distribution (%) S” value (CHO cells [1]; Day 3) was 17.3%. For the same compound, the “Cell Cycle Distribution (%) G1” value (CHO cells [1]; Day 4) was 78.68%, the “Cell Cycle Distribution (%) G2/M” value (CHO cells [1]; Day 4) was 6.13% and the “Cell Cycle Distribution (%) S” value (CHO cells [1]; Day 4) was 15.19%. The Titer ([2]; D 1) was 0.29 g/L, the VCD ([2]; D 1) was 10.88 e6/mL and the Viability ([2]; D 1) was 95.11%. For the same compound, the qP ([2]; D 1) was 26.34 pg/c/d, the Titer ([2]; D 2) was 0.49 g/L and the VCD ([2]; D 2) was 11.15 e6/mL. It also gave a Viability ([2]; D 2) of 89.60%, a qP ([2]; D 2) of 43.95 pg/c/d and a Titer ([2]; D 3) of 0.62 g/L. For the same compound, the VCD ([2]; D 3) was 13.45 e6/mL, the Viability ([2]; D 3) was 87.50% and the qP ([2]; D 3) was 46.35 pg/c/d. The Titer ([2]; D 4) was 0.89 g/L, the VCD ([2]; D 4) was 20.16 e6/mL and the Viability ([2]; D 4) was 87.46%. The qP ([2]; D 4) was 43.97 pg/c/d, the IC50 (Colo205) was 14.8 nM and the IC50 (CDK4/Cyclin D1) was 2.75 nM. For the same compound, the Titer ([3]; D 1) was 0.47 g/L, the VCD ([3]; D 1) was 10.95 e6/mL and the Viability ([3]; D 1) was 94.83%. For the same compound, the qP ([3]; D 1) was 42.90 pg/c/d, the Titer ([3]; D 2) was 0.70 g/L and the VCD ([3]; D 2) was 9.61 e6/mL. For the same compound, the Viability ([3]; D 2) was 85.63%, the qP ([3]; D 2) was 72.84 pg/c/d and the Titer ([3]; D 3) was 0.96 g/L. For the same compound, the VCD ([3]; D 3) was 10.14 e6/mL, the Viability ([3]; D 3) was 82.33% and the qP ([3]; D 3) was 94.99 pg/c/d. For the same compound, the Titer ([3]; D 4) was 1.19 g/L, the VCD ([3]; D 4) was 12.66 e6/mL and the Viability ([3]; D 4) was 78.87%. The qP ([3]; D 4) was 94.23 pg/c/d, the effect on viability ([3]; summary of Table 2) was “greater (but still modest) decreases in viability” and the growth arrest ([3]; summary of Table 2) was “more sustained growth arrest”.
`CC(=O)c1c(C)c2cnc(Nc3ccc(N4CCNCC4)nn3)nc2n(C2CCCC2)c1=O` [Compound M, 6-acetyl-8-cyclopentyl-5-methyl-2-((6-(piperazin-1-yl)pyridazin-3-yl)amino)pyrido[2,3-d]pyrimidin-7(8H)-one] was tested, and the IC50 (Colo205) was 92 nM, the VCD (CHO cells [4]; 2.5 microM, D 1) was 0.4656 e6/mL and the VCD (CHO cells [4]; 2.5 microM, D 2) was 0.6879 e6/mL. The Viability (CHO cells [4]; 2.5 microM, D 2) was 97.90%, the VCD (CHO cells [4]; 2.5 microM, D 3) was 1.1916 e6/mL and the Viability (CHO cells [4]; 2.5 microM, D 3) was 97.65%. For the same compound, the VCD (CHO cells [4]; 2.5 microM, D 4) was 2.1883 e6/mL, the Viability (CHO cells [4]; 2.5 microM, D 4) was 96.47% and the VCD (CHO cells [4]; 5 microM, D 1) was 0.4129 e6/mL. The VCD (CHO cells [4]; 5 microM, D 2) was 0.5439 e6/mL, the Viability (CHO cells [4]; 5 microM, D 2) was 97.90% and the VCD (CHO cells [4]; 5 microM, D 3) was 0.8760 e6/mL. For the same compound, the Viability (CHO cells [4]; 5 microM, D 3) was 97.67%, the VCD (CHO cells [4]; 5 microM, D 4) was 1.4543 e6/mL and the Viability (CHO cells [4]; 5 microM, D 4) was 95.90%. The VCD (CHO cells [4]; 10 microM, D 1) was 0.4204 e6/mL, the VCD (CHO cells [4]; 10 microM, D 2) was 0.4984 e6/mL and the Viability (CHO cells [4]; 10 microM, D 2) was 97.90%. For the same compound, the VCD (CHO cells [4]; 10 microM, D 3) was 0.7601 e6/mL, the Viability (CHO cells [4]; 10 microM, D 3) was 97.06% and the VCD (CHO cells [4]; 10 microM, D 4) was 1.2297 e6/mL. For the same compound, the Viability (CHO cells [4]; 10 microM, D 4) was 95.85%, the VCD (CHO cells [4]; 20 microM, D 1) was 0.3915 e6/mL and the VCD (CHO cells [4]; 20 microM, D 2) was 0.4101 e6/mL. The Viability (CHO cells [4]; 20 microM, D 2) was 97.90%, the VCD (CHO cells [4]; 20 microM, D 3) was 0.5348 e6/mL and the Viability (CHO cells [4]; 20 microM, D 3) was 97.31%. The VCD (CHO cells [4]; 20 microM, D 4) was 0.8023 e6/mL, the Viability (CHO cells [4]; 20 microM, D 4) was 96.04% and the “cytotoxicity and growth arrest properties” value (CHO cells [4]; compared with Compound A) was “very similar, at similar concentrations, to the properties of Compound A”. The IC50 (CDK4/Cyclin D1) was 15 nM and the “increase in specific productivity (qP) of recombinant protein” value [5] was > 200%.
